Measurements published in PubChem BioAssay (NCI).
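Five compound concentrations were applied to cells in 96-well plates for 48 hours; endpoints were derived by simple linear interpolation of the resulting dose-response curve. TGI is the concentration that stops growth completely.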

What was measured:
Test in all cases: NCI tumour cell line growth inhibition, 48 h
[1] = system: BT-549 breast
[2] = system: HS 578T breast
[3] = system: HT29 colon
[4] = system: T-47D breast
[5] = system: HCT-15 colon
[6] = system: MCF7 breast
[7] = system: HL-60(TB) leukemia
[8] = system: SK-MEL-28 melanoma
[9] = system: M14 melanoma
[10] = system: UO-31 renal
[11] = system: MALME-3M melanoma
[12] = system: A498 renal
[13] = system: UACC-257 melanoma
[14] = system: SN12C renal
[15] = system: OVCAR-3 ovarian
[16] = system: HCC-2998 colon
[17] = system: SNB-19 CNS
[18] = system: RPMI-8226 leukemia
[19] = system: SF-295 CNS
[20] = system: COLO 205 colon
[21] = system: SW-620 colon
[22] = system: SF-539 CNS
[23] = system: HOP-62 NSCLC
[24] = system: MDA-MB-231 breast
[25] = system: SK-OV-3 ovarian
[26] = system: OVCAR-8 ovarian
[27] = system: UACC-62 melanoma
[28] = system: OVCAR-5 ovarian
[29] = system: MDA-MB-435
[30] = system: SK-MEL-5 melanoma
[31] = system: KM12 colon
[32] = system: RXF 393 renal
[33] = system: MDA-N
[34] = system: ACHN renal
[35] = system: SF-268 CNS
[36] = system: K-562 leukemia
[37] = system: PC-3 prostate
[38] = system: EKVX NSCLC
[39] = system: NCI-H522 lung
[40] = system: CAKI-1 renal
[41] = system: IGROV1 ovarian
[42] = system: SR leukemia
[43] = system: 786-0 renal
[44] = system: U251 CNS
[45] = system: HCT-116 colon
[46] = system: SK-MEL-2 melanoma
[47] = system: NCI-H460 lung
[48] = system: DU-145 prostate
[49] = system: NCI/ADR-RES ovarian
[50] = system: TK-10 renal
[51] = system: OVCAR-4 ovarian
[52] = system: NCI-H23 lung
[53] = system: A549 NSCLC
[54] = system: HOP-92 NSCLC
[55] = system: LOX IMVI melanoma
[56] = system: MOLT-4 leukemia
[57] = system: CCRF-CEM leukemia
[58] = system: SNB-75 CNS
[59] = system: NCI-H226 lung

COc1ccc(-n2c3c(c4c(CN(C)C)c(O)ccc42)C(=O)c2ccccc2C3=O)cc1
TGI [1]: 35.9 µM
TGI [2]: > 100 µM
TGI [3]: 6.3 µM
TGI [4]: 6.99 µM
TGI [5]: 10.5 µM
TGI [6]: 24.9 µM
TGI [7]: 19.5 µM
TGI [8]: 14.7 µM
TGI [9]: 11.8 µM
TGI [10]: 5.11 µM
TGI [11]: 27.1 µM
TGI [12]: 8.47 µM
TGI [13]: 41.2 µM
TGI [14]: 7.15 µM
TGI [15]: 30.8 µM
TGI [16]: 5.42 µM
TGI [17]: > 100 µM
TGI [18]: 4.88 µM
TGI [19]: 33.2 µM
TGI [20]: 20.7 µM
TGI [21]: 7.53 µM
TGI [22]: 3.89 µM
TGI [23]: 4.72 µM
TGI [24]: 7.67 µM
TGI [25]: 8.01 µM
TGI [26]: 20.5 µM
TGI [27]: 15.7 µM
TGI [28]: 17.1 µM
TGI [29]: 30.9 µM
TGI [30]: 5.67 µM
TGI [31]: 10.7 µM
TGI [32]: 52.2 µM
TGI [33]: 21.2 µM
TGI [34]: 3.9 µM
TGI [35]: 44.9 µM
TGI [36]: 4.62 µM
TGI [37]: 37.1 µM
TGI [38]: 25.4 µM
TGI [39]: 30.7 µM
TGI [40]: 34.5 µM
TGI [41]: 23 µM
TGI [42]: 6.84 µM
TGI [43]: 4.52 µM
TGI [44]: > 100 µM
TGI [45]: 3.98 µM
TGI [46]: 45.8 µM
TGI [47]: 26.2 µM
TGI [48]: 29.2 µM
TGI [49]: 26.3 µM
TGI [50]: 36.8 µM
TGI [51]: 15.9 µM
TGI [52]: 29.6 µM
TGI [53]: 37.5 µM
TGI [54]: 44.8 µM
TGI [55]: 7 µM
TGI [56]: > 100 µM
TGI [57]: 8.35 µM

N=c1oc2ccc(Cl)cc2cc1C(=O)NCc1ccccc1
TGI [1]: > 100 µM
TGI [2]: > 80.5 µM
TGI [58]: > 95 µM
TGI [3]: > 100 µM
TGI [4]: > 100 µM
TGI [5]: > 100 µM
TGI [6]: > 100 µM
TGI [7]: 36.8 µM
TGI [8]: > 100 µM
TGI [9]: > 100 µM
TGI [10]: > 100 µM
TGI [11]: > 100 µM
TGI [12]: > 100 µM
TGI [13]: > 100 µM
TGI [14]: > 100 µM
TGI [15]: > 100 µM
TGI [16]: > 100 µM
TGI [17]: > 100 µM
TGI [18]: > 100 µM
TGI [19]: > 100 µM
TGI [20]: > 100 µM
TGI [21]: > 100 µM
TGI [22]: > 100 µM
TGI [23]: > 100 µM
TGI [24]: > 100 µM
TGI [25]: > 100 µM
TGI [26]: > 100 µM
TGI [27]: > 100 µM
TGI [28]: > 100 µM
TGI [29]: > 100 µM
TGI [30]: > 100 µM
TGI [31]: > 100 µM
TGI [32]: > 100 µM
TGI [33]: > 100 µM
TGI [34]: > 100 µM
TGI [35]: > 100 µM
TGI [36]: > 70.4 µM
TGI [37]: > 100 µM
TGI [38]: > 100 µM
TGI [39]: > 100 µM
TGI [40]: > 100 µM
TGI [41]: > 100 µM
TGI [42]: > 100 µM
TGI [43]: > 100 µM
TGI [44]: > 100 µM
TGI [45]: > 100 µM
TGI [59]: > 100 µM
TGI [46]: > 100 µM
TGI [47]: > 100 µM
TGI [48]: > 100 µM
TGI [49]: > 100 µM
TGI [50]: > 100 µM
TGI [51]: > 100 µM
TGI [52]: > 100 µM
TGI [53]: > 100 µM
TGI [54]: > 100 µM
TGI [55]: > 100 µM
TGI [56]: > 56.7 µM
TGI [57]: > 54 µM
